Test results reported in PMC8799717, “Pharmacological targeting PIKfyve and tubulin as an effective treatment strategy for double-hit lymphoma” (Cell Death Discovery, 2022).

What was measured:
Experiment in all cases: biochemical
Parameters in all cases: KINOMEscan active-site-directed competition binding panel, 468 kinases, percent of DMSO control at 1 uM
Settings in all cases: KINOMEscan binding, percent of DMSO control; read-out: Ctrl%
[1] = target: T1, ABL1(Q252H)-nonphosphorylated (Homo sapiens, UniProt P00519, Q252H)
T1 construct: nonphosphorylated

[2] = target: ACVR1 (Homo sapiens, UniProt Q04771)
[3] = target: ALK (Homo sapiens, UniProt Q9UM73)
[4] = target: CDK4 (Homo sapiens, UniProt P11802)
[5] = target: EPHA1 (Homo sapiens, UniProt P21709)
[6] = target: ERN1 (Homo sapiens, UniProt O75460)
[7] = target: FLT3(D835H) (Homo sapiens, UniProt P36888, D835H)
[8] = target: GRK1 (Homo sapiens, UniProt Q15835)
[9] = target: T2, IKK-alpha (Homo sapiens, UniProt O15111)
T2 construct: gene CHUK

[10] = target: T3, IKK-beta (Homo sapiens, UniProt O14920)
T3 construct: gene IKBKB

[11] = target: KIT(V559D,V654A) (Homo sapiens, UniProt P10721, V559D/V654A)
[12] = target: LIMK2 (Homo sapiens, UniProt P53671)
[13] = target: MYLK (Homo sapiens, UniProt Q15746)
[14] = target: PAK4 (Homo sapiens, UniProt O96013)
[15] = target: PIK3CA(H1047L) (Homo sapiens, UniProt P42336, H1047L)
[16] = target: PRKCQ (Homo sapiens, UniProt Q04759)
[17] = target: PRKG1 (Homo sapiens, UniProt Q13976)
[18] = target: T4, PRKR (Homo sapiens, UniProt P19525)
T4 construct: gene EIF2AK2

[19] = target: RET (Homo sapiens, UniProt P07949)
[20] = target: SNRK (Homo sapiens, UniProt Q9NRH2)
[21] = target: TYRO3 (Homo sapiens, UniProt Q06418)
[22] = target: ULK1 (Homo sapiens, UniProt O75385)
[23] = target: WNK4 (Homo sapiens, UniProt Q96J92)
[24] = target: T5, YANK1 (Homo sapiens, UniProt Q8WU08)
T5 construct: gene STK32A
T5 sequence (Q8WU08 whole entry): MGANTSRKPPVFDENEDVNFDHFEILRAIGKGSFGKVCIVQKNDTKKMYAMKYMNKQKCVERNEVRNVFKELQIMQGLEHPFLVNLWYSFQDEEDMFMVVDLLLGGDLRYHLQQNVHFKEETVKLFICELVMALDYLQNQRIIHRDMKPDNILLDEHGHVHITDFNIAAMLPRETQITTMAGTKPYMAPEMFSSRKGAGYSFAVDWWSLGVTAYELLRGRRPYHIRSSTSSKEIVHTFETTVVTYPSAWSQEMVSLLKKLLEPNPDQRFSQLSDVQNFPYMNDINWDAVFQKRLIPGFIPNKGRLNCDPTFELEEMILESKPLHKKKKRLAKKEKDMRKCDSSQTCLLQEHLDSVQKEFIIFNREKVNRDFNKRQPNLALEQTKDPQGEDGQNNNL

T2 sequence (O15111 whole entry): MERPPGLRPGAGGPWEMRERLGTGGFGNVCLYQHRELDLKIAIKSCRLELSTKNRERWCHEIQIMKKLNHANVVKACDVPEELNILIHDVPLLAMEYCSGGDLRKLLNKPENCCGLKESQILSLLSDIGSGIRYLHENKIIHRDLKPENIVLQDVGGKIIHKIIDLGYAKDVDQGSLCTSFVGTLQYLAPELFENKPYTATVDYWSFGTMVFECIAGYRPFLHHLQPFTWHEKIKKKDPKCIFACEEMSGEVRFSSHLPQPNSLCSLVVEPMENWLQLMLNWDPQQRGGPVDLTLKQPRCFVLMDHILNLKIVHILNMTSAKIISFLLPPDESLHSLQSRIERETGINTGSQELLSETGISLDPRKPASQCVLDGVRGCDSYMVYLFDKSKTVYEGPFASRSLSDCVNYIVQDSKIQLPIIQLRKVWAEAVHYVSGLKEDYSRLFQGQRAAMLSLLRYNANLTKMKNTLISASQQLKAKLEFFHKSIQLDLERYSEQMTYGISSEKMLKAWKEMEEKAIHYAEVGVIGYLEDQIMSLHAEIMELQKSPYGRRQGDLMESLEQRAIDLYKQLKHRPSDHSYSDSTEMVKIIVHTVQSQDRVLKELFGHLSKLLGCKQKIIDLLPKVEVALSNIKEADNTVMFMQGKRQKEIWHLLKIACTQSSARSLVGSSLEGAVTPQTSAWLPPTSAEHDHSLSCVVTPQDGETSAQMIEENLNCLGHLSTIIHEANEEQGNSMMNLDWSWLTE
Sequence of MYLK (Q15746 whole entry): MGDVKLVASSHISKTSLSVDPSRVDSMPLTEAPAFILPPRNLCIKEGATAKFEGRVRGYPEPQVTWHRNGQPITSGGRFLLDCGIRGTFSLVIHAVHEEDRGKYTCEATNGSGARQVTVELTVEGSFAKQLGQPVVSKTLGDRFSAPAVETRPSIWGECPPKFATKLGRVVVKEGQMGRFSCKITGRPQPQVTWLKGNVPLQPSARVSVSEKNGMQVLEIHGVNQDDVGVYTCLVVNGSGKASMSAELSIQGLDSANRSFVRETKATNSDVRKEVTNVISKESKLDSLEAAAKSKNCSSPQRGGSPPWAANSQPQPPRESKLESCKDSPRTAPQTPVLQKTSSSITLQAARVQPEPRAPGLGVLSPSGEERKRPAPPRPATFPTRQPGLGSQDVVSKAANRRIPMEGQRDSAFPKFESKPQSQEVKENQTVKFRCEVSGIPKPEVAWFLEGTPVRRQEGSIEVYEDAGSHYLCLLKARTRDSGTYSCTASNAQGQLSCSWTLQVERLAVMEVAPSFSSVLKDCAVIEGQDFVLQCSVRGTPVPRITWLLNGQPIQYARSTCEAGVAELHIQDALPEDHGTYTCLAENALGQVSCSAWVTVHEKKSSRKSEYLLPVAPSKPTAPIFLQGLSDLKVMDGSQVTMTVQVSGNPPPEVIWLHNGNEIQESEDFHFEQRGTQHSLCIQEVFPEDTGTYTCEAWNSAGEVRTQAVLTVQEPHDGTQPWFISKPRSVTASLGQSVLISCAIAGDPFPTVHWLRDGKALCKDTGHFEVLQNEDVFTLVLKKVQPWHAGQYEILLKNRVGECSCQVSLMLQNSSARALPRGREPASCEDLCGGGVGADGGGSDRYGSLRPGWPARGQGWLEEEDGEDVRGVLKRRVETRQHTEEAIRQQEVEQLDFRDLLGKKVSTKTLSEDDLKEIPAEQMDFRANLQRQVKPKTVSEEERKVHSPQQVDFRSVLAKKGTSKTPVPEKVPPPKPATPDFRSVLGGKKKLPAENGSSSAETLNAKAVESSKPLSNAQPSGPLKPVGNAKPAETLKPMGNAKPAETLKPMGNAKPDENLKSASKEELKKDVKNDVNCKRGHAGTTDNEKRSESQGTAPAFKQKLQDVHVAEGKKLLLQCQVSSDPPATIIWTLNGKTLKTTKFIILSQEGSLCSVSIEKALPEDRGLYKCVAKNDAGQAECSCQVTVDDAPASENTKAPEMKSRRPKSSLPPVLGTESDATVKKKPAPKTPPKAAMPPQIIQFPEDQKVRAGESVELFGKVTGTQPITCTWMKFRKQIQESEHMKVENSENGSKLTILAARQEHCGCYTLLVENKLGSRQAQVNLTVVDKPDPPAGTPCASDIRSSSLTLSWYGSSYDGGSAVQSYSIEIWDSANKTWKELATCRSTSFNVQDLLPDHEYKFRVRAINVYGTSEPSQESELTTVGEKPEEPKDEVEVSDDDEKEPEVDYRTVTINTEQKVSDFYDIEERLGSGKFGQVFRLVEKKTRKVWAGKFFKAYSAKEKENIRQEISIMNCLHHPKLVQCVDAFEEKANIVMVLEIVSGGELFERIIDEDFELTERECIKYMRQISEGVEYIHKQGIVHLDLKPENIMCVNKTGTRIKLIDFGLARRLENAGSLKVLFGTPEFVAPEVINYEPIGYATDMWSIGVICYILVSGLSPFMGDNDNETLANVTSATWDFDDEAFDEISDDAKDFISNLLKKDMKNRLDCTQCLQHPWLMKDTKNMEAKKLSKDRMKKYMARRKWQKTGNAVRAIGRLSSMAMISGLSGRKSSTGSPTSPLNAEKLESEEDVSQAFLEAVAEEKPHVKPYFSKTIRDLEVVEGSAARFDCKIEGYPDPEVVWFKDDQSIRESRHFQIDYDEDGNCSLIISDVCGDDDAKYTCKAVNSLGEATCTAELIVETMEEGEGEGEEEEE
Sequence of PRKCQ (Q04759 whole entry): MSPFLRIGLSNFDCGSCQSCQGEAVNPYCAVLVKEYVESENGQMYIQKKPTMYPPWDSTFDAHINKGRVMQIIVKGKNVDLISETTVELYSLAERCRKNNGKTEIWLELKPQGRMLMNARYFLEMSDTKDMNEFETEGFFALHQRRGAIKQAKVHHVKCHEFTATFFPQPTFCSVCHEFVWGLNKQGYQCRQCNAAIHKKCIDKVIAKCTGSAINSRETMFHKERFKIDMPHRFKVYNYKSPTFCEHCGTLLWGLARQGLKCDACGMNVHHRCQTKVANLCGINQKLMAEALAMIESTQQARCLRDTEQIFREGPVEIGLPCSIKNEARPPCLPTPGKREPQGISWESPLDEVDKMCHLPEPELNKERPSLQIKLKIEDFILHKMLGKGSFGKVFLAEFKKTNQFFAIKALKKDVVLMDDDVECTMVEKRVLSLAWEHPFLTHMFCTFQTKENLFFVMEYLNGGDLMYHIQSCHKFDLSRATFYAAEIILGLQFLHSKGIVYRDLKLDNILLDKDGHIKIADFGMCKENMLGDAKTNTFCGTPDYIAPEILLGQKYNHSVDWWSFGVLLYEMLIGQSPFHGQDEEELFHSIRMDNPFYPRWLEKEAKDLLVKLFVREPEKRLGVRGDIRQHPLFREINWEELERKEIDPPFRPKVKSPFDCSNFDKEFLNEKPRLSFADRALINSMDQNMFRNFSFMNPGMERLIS
Sequence of ERN1 (O75460 whole entry): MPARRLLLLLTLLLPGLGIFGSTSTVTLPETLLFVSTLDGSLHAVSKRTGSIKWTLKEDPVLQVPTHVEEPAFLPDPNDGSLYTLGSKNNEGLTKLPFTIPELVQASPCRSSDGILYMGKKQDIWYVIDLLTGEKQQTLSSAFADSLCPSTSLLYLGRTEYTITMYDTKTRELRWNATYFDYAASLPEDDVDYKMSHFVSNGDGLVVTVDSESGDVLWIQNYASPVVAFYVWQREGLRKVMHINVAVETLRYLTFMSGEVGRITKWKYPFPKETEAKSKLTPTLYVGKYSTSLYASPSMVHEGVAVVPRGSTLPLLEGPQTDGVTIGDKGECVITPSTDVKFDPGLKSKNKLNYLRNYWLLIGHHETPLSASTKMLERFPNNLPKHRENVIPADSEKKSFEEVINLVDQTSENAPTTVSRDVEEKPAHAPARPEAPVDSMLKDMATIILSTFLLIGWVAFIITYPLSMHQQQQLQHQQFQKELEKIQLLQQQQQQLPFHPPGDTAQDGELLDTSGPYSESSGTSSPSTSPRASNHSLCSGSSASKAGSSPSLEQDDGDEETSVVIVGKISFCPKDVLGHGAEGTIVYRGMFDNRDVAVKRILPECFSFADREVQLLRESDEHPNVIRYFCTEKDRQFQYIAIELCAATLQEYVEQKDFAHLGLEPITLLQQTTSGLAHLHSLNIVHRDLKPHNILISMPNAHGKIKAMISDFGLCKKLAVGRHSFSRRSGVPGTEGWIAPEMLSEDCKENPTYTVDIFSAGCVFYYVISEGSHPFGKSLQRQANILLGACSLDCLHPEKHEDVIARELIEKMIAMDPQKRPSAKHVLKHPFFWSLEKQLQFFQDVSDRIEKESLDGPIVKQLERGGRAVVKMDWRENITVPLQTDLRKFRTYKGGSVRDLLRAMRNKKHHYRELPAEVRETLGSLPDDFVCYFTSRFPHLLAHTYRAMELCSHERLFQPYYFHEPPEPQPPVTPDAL
Sequence of CDK4 (P11802 whole entry): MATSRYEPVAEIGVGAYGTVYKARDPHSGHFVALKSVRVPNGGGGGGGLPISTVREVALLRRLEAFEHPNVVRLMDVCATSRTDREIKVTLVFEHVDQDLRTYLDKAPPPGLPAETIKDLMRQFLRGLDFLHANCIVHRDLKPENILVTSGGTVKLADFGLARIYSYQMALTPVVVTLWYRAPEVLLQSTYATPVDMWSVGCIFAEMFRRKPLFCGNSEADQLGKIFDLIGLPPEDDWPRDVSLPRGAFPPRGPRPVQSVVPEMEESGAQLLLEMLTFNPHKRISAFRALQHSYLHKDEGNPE

Cc1ccc(NC(=O)c2cccc(C(F)(F)F)c2)cc1Nc1cc(-c2cccnc2)nc2[nH]ccc12 [HZX-02-059]
remaining binding at 1 µM [1]: 30% | remaining binding at 1 µM [2]: 77% | remaining binding at 1 µM [3]: 100% | remaining binding at 1 µM [4]: 100% | remaining binding at 1 µM [5]: 78% | remaining binding at 1 µM [6]: 66% | remaining binding at 1 µM [7]: 92% | remaining binding at 1 µM [8]: 77% | remaining binding at 1 µM [9]: 100% | remaining binding at 1 µM [10]: 100% | remaining binding at 1 µM [11]: 61% | remaining binding at 1 µM [12]: 95% | remaining binding at 1 µM [13]: 100% | remaining binding at 1 µM [14]: 95% | remaining binding at 1 µM [15]: 56% | remaining binding at 1 µM [16]: 88% | remaining binding at 1 µM [17]: 82% | remaining binding at 1 µM [18]: 95% | remaining binding at 1 µM [19]: 90% | remaining binding at 1 µM [20]: 71% | remaining binding at 1 µM [21]: 100% | remaining binding at 1 µM [22]: 97% | remaining binding at 1 µM [23]: 100% | remaining binding at 1 µM [24]: 92%
